What was measured:
[1] = test system: Human erythroleukemia cells; assay: Fetal globin mRNA in erythroleukemia cells by primer extension; assay type: cell-based; details: 1.0 mM, 4 days
Method: Compounds were tested for increased expression of the human globin genes in human erythroid cells. In addition, as the cell line being tested is a tumor cell line, the assay determines if differentiation, a growth inhibitory effect on cancer cells, is induced by the compounds tested. Human erythroleukemia cells were cultured in RPMI media with 10% fetal calf serum alone or with treatment with various compounds for 4 days. Globin mRNA was quantitated by primer extension analysis. Fetal globin mRNA was compared to the amount of fetal globin mRNA produced in untreated cells during the same culture period. The quantitation was expressed as a percent of alpha globin mRNA which was constant. Results are expressed proportional to α-globin mRNA (Table 3).

anemic juvenile baboons = assay: In vivo reticulocyte proliferation and globin expression in phlebotomized anemic baboons; design: species or system baboon
Method: Experiments were performed to determine if administration of the chemical compositions could induce fetal globin gene expression in an in vivo model similar to humans (S. P. Perrin et al., Brit. J. Haematol. 88:555-61, 1994). Briefly, chemicals were prepared as sterile pharmaceutical solutions in pH adjusted sterile water. A variety of chemical compositions were administered sequentially to some baboons. After administration of one compound, a wash-out period with no compound administration was maintained until reticulocytes returned to base line prior to administration of the next compound. This was done, at least partly, to compare the magnitude of response which occurred within the same individual animal to different compounds.
Briefly, juvenile female baboons (2 years old) were catheterized with arterial and venous catheters and phlebotomized gradually every day to maintain a moderate anemia of 7.0 to 7.5 grams hemoglobin/dl. Fetal reticulocytes, the newly produced red blood cells containing fetal globin, were assayed using a monoclonal antibody against fetal globin (HbF) as described by G. Dover et al. (Blood 67:735-38, 1986). Briefly, blood was stained with two antibodies, one specific for reticulocytes and another against fetal globin protein. The amount of antibody bound cells was determined by FACS analysis. Globin chain synthesis was assayed as described by J. B. Clegg et al. (J. Mol. Biol. 19:91-108, 1966). Briefly, reticulocytes were radio-labeled with ^3H-leucine which was incorporated in equal proportions into actively synthesized globin chains. After incubation in leucine-free media, cells were washed, and globin proteins were separated and purified by column chromatography. Radioactivity incorporated into each peak is compared and the ratios of gamma to gamma plus beta globin calculated. Each animal served as its own control with baseline monitoring assays performed for 4-6 weeks before any drug was administered. Phlebotomy was continued daily, so that peripheral HbF levels in the animals were not considered to be accurate over the short treatment time-frames and were not monitored. Safety monitoring was performed by frequent physical examinations, quantitation of food eaten, activity and frequent chemistry and hematology monitoring. Complete blood counts were assayed before, during and after treatment. Results presented were not adjusted to account for the daily phlebotomy.

[2] = test system: erythroid progenitor cells cultured from human cord blood; assay: Fetal globin expression in human cell cultures (3H-leucine labelled globin chains, densitometry); assay type: cell-based; details: for Gamma Increase: Exp. B, 12-13 days
Method: Compositions were tested for activity in inducing fetal globin expression and protein production in erythroid progenitor cells cultured from human cord blood and analyzed as described by S. P. Perrine et al. (Blood 74: 454-60, 1989). Briefly, mononuclear cells were cultured in IMDM with 30% fetal calf serum and 2 units erythropoietin per ml to induce erythroid differentiation. Colonies were harvested on day 12-13, incubated with radio-labelled (^3H) leucine, and further incubated in leucine-free media, still in the presence of compounds, overnight. Globin composition in the erythroid cells was analyzed by laser densitometry of electrophoretically separated globin chains stained with Coomassie blue, and by autoradiography. Treated cells were incubated for 12-13 days (Table 2, Experiments A and B) or overnight (Table 2, Experiment C) in the presence of the indicated compounds and compared to untreated control cells cultured from the same human subject.

[3] = test system: proximal promoter of the gamma globin gene in K562 cells; assay: Gamma globin promoter-neomycin (NEO) transfection, colony survival in G418; assay type: cell-based, human; details: 1 mM, 8 weeks
Method: Gamma globin promoter-neomycin transfection experiments were performed to determine if compounds act by inducing an increase in activity from the proximal promoter of the gamma globin gene. Constructs containing 61 by of the proximal gamma globin promoter were linked to the reporter gene for neomycin phosphotransferase (NEO) and transfected into permissive K562 cells by electroporation. After 18 hours, transfected cells were passed at 10^3 cells per well into RPMI media containing G418 (neomycin), which kills all mammalian cells unless the gene for NEO is expressed. Phenoxyacetic acid and thiophenoxyacetic acid were added to some of the cells plated into the RPMI/G418 media at concentrations of 1 mM. Cultures were incubated for 8 weeks with media changes performed as needed. Colonies which survived and grew in the presence of G418 were scored and the number of such colonies was compared to those generated when the cells were plated into G418 media without the test compounds. No colonies in the 24 wells survived in the absence of compounds. There was a greater than 6-fold (>600%) increase in proportions of colonies surviving the presence of phenoxyacetic acid (6/24 wells) and a three-fold (300%) increase in survival in the presence of thiophenoxyacetic acid (3/24 wells).

[4] = test system: system A transport in K562 cells and nucleated erythroblasts from fetal liver; assay: System A (neutral amino acid) transport, 3H-MAIB uptake; assay type: cell-based, human; details: 1 hour incubation; FIG. 12
Method: Inhibition of nutrient uptake is undesirable for treatment of anemias. Methyl aminoisobutyric acid (MAIB) labeled with tritium (^3H) is normally taken up by system A amino acid transport. Cold (unlabeled) compounds were added to cultures containing ^3H-MAIB and incubated for 1 hour. Cells were harvested and the amount of ^3H taken up by cells was quantitated by scintillation counting.

## CCCC(=O)OCC(O)CO (stereo not shown) [MB, monobutyrin]
[1]
  induction of fetal globin mRNA in human cells: significantly increased
[1]; untreated 0.46
  Gamma/Alpha (fetal globin mRNA proportional to α-globin mRNA): 0.73
[1]; versus untreated
  Gamma Globin mRNA (increase ↑): 26% ↑
Anemic juvenile baboons; intravenous each day, 4 days, 500 to 2,000 mg/kg
  fetal reticulocytes above basal levels: 220%
Anemic juvenile baboons; intravenous each day, 4 days, 500 to 2,000 mg/kg, from 12%
  fetal reticulocytes after treatment: 27%

## CC(CO)C(N)=O (stereo not shown) [MHPP, 2 methyl-3-hydroxypropionamide, reference compound]
[2]; 0.05 mM
  Gamma Increase: 2.0%
[2]; 1.0 mM
  Gamma Increase: −3.5%
[2]; concentrations above 0.25 mM
  expression of fetal globin (FIG. 4): decreased the expression of fetal globin
[2]; concentrations below 0.25 mM
  expression of fetal globin (FIG. 4): increased fetal globin expression

## O=C(O)CSc1ccccc1 [thiophenoxyacetic acid]
[3]
  increase in proportions of colonies surviving G418: 300%
[3]; no colonies without compounds
  increase in proportions of colonies surviving G418: three-fold

## CCCC(=O)OCC(COC(=O)CCC)OC(=O)CCC [tributyrin]
Anemic juvenile baboons; intravenous 3 days, 500 to 750 mg/kg per day, from 0%
  gamma globin expression after treatment: about 2.2 % of total non-alpha globin expression
Anemic juvenile baboons; intravenous 3 days, 500 to 750 mg/kg per day, from 10%
  fetal reticulocytes after treatment: 14%

## CC(=Cc1ccccc1)C(=O)O [α-methyl cinnamic acid]
[4]
  system A transport of amino acids (3H-MAIB uptake): do not significantly alter

## CC(Cc1ccccc1)C(=O)O (stereo not drawn) [α-methyl hydrocinnamic acid]
[4]
  system A transport of amino acids (3H-MAIB uptake): caused no significant inhibition and actually increased uptake of nutrients into cells
Anemic juvenile baboons; baboon, infused 8 h/day, 5 days: 500 mg/kg 2 days, 700 mg/kg 2 days, 1,000 mg/kg 1 day, over 3 days
  rise of total hemoglobin: 1.5 grams/dl
Anemic juvenile baboons; same regimen (500/700/1,000 mg/kg, 5 days), rose from 2.28
  red blood cell count after treatment: 3.53 ×10^6 red blood cells per microliter
Anemic juvenile baboons; same regimen (500/700/1,000 mg/kg, 5 days), rose from 5.6%
  total number of reticulocytes after treatment: 11%
Anemic juvenile baboons; same regimen (500/700/1,000 mg/kg, 5 days), rose from 6.4
  total hemoglobin after treatment: 7.9 grams/dl
Anemic juvenile baboons; same regimen (500/700/1,000 mg/kg, 5 days), rose from 19.5%
  packed red blood cell volume after treatment: 31.2 % of total blood volume
Anemic juvenile baboons; same regimen (500/700/1,000 mg/kg, 5 days), rose from 26.7
  platelet count after treatment: 46.8 ×10^4 cells/μl
Anemic juvenile baboons; second baboon, 500 mg/kg 8 h, 700 mg/kg 8 h, 700 mg/kg 2, 4 and 6 h, after 5 days, from 4.0%
  total fetal globin synthesis after treatment: 10.8%
Anemic juvenile baboons; second baboon, 500-700 mg/kg, 5 days
  rise of total hemoglobin: 1.4 grams
Anemic juvenile baboons; second baboon, 500-700 mg/kg, 5 days, from 2.3×10^6
  red blood cell counts after treatment: 2.82×10^6
Anemic juvenile baboons; second baboon, 500-700 mg/kg, 5 days, from 4.6
  total hemoglobin after treatment: 6.0 g/dL
Anemic juvenile baboons; second baboon, 500-700 mg/kg, 5 days, from 14.5%
  packed red blood cell volume after treatment: 20.2%
Anemic juvenile baboons; second baboon, 500-700 mg/kg, 5 days, from 8,700
  white blood cell counts, maximum: 14,300
Anemic juvenile baboons; second baboon, 500-700 mg/kg, 5 days, from 328,000
  platelet counts, high: 486,000
Anemic juvenile baboons; third baboon, 5 days
  adverse effects: No adverse affects were observed
Anemic juvenile baboons; third baboon, after 5 days, from 0%
  fetal globin protein synthesis after treatment: 6.2 % of non-alpha globin
Anemic juvenile baboons; third baboon, same dose, after 5 days (FIG. 8), from 0%
  fetal hemoglobin producing reticulocytes after treatment: 10%
